Source: US4857540A, “Dopamine-β-hydroxylase inhibitors” (SmithKline Beckman Corporation, priority 1987, dated 1989)
pIC50: −log10 of the molar value. Where a name gives a salt, the structure may show the parent alone. Read-outs that look alike come from different tables or passages of the source. Each block holds one compound with its values, some of them ahead of it.

What was measured:
[1] = biological target: T1, dopamine-β-hydroxylase (DBH) (Bos taurus, UniProt P15101); test: in vitro DBH inhibition, conversion of tyramine to octopamine (absorbance at 330 nm); type: biochemical; conditions: read-out: DBH inhibition, % at 10^-4 M
T1 sequence (P15101 1-610): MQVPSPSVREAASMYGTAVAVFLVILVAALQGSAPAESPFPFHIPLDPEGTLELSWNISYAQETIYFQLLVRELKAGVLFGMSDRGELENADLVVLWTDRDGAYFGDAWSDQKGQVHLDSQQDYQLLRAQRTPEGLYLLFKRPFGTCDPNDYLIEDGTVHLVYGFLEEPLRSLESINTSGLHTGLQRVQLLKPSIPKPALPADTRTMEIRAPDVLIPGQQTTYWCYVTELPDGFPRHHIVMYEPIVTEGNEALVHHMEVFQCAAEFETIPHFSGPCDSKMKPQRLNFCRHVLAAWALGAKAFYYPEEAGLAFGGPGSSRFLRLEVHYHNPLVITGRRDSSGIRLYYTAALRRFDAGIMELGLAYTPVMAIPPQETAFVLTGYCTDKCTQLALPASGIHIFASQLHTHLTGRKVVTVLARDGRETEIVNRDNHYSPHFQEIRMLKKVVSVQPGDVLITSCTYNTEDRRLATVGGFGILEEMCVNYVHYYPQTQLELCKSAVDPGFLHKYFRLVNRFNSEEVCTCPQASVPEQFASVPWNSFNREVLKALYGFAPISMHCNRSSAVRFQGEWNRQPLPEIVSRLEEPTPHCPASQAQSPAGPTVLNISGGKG

[2] = tested on: peripheral dopamine (DA) and norepinephrine (NE) levels; test: effects in vivo on peripheral dopamine (DA) and norepinephrine (NE) levels; set-up: species or system Spontaneously hypertensive rats; conditions: dosed twice about 18 hours apart, sacrificed about 2 hours after second dose, mean of 5 animals; for DA / NE: per gram of tissue
Method: Various compounds of the invention were tested for their effects in vivo on peripheral dopamine (DA) and norepinephrine (NE) levels substantially by the procedure of DaPrada and Zurcher, Life Sci., 19, 1161, (1976). Spontaneously hypertensive rats were dosed twice, the second dose being abut 18 hours after the first, and were sacrificed about 2 hours after the second dose.

[3] = biological target: T1, dopamine-β-hydroxylase (DBH); test: in vitro DBH inhibition, conversion of tyramine to octopamine (absorbance at 330 nm); type: biochemical
Method: Compounds of the invention and other compounds useful in the method of the invention were screened for in vitro DBH inhibition by a standard procedure for assaying conversion of tyramine to octopamine in the presence of DBH. Octopamine was assayed following sodium periodate oxidation to p-hydroxybenzaldehyde by measuring spectrophotometric absorbance at 330 nm. Inhibition is given in molar concentration of compound at which DBH activity was halved (IC50). Melting points (mp) are given in °C.

[4] = mean arterial blood pressure, indwelling cannulae in tail artery; type: in vivo, Spontaneously hypertensive rats; conditions: 50 mg/kg i.p.
Method: Further, the same rats were dosed with a suspension or solution at a dose of 50 mg/kg of test compound i.p. and mean arterial blood pressure determined with indwelling cannulae inserted into the tail artery.

[5] = Teresawa et al., Japan, Cir. J. 35, 339 (1971); cited from earlier work
[6] = in vitro, tyramine to octopamine, read-out: IC50 value (molar concentration of compound at which DBH activity was halved)

SMILES: Sc1nc2ccccc2n1Cc1c(Cl)cccc1Cl [Example 2, 1-(2,6-dichlorobenzyl)-2-mercaptobenzimidazole]
- inhibition at 100 µM [1]: 60%

SMILES: COc1c(F)cc(Cn2c(S)nc3ccccc32)cc1F [Example 3, 1-(3,5-difluoro-4-methoxybenzyl)-2-mercaptobenzimidazole]
- DA/NE Ratio [2]: 0.055
- DA [2]: 0.397 µg/g
- NE [2]: 7.82 µg/g

SMILES: Sc1nc2ccccc2n1Cc1ccccc1 [Example 5, N-benzyl-2-mercaptobenzimidazole]
- pIC50 [3, 6]: 4.21

SMILES: Fc1cc(F)cc(Cn2c(S)nc3ccccc32)c1 [Example 6, 1-(3,5-difluorobenzyl)-2-mercaptobenzimidazole]
- pIC50 [3, 6]: 5.21
- DA/NE Ratio [2]: 0.086
- DA [2]: 0.607 µg/g
- NE [2]: 7.054 µg/g
- mean arterial pressure [4]: significant reduction in mean arterial pressure

SMILES: Oc1c(F)cc(Cn2c(S)nc3ccccc32)cc1F [Example 9, 1-(3,5-difluoro-4-hydroxybenzyl)-2-mercaptobenzimidazole]
- pIC50 [3, 6]: 6.18

SMILES: NCc1nc2ccccc2n1Cc1ccc(Cl)c(Cl)c1 [Example 38, 1-[3,4-Dichlorobenzyl]-2-aminomethylbenzimidazole dihydrochloride]
- pIC50 [3, 6]: 4.16

SMILES: NCc1nc2ccccc2n1Cc1cccc(F)c1 [Example 39, 1-[3-fluorobenzyl]-2-aminomethylbenzimidazole dihydrofluoride]
- pIC50 [3, 6]: 3.89

SMILES: NCc1nc2ccccc2n1Cc1cccc(Cl)c1 [Example 40, 1-[3-chlorobenzyl]-2-aminomethylbenzimidazole dihydrochloride]
- pIC50 [3, 6]: 3.95

SMILES: CCCCc1ccc(C(=O)O)nc1 [fusaric acid, reference compound]
- pIC50 [3]: ~6.10
- hepatotoxicity [5]: hepatotoxic

More lines, now with the values ahead:

- inhibition at 100 µM [1]: 70%
SMILES: Sc1nc2ccccc2n1Cc1cc(Cl)cc(Cl)c1 [Example 4, 1-(3,5-dichlorobenzyl)-2-mercaptobenzimidazole]

- inhibition at 100 µM [1]: 6%
SMILES: COc1ccc(Cn2c(S)nc3ccccc32)cc1 [Example 7, 1-(4-methoxybenzyl)-2-mercaptobenzimidazole]

- pIC50 [3, 6]: 5.42
SMILES: Oc1c(Cl)cc(Cn2c(S)nc3ccccc32)cc1Cl [Example 8, 1-(3,5-dichloro-4-hydroxybenzyl)-2-mercaptobenzimidazole]

- pIC50 [3, 6]: 4.89
SMILES: Oc1ccc(Cn2c(S)nc3ccccc32)cc1 [Example 10, 1-(4-hydroxybenzyl)-2-mercaptobenzimidazole]

- pIC50 [3, 6]: 6.92
SMILES: NCc1nc2ccccc2n1Cc1ccccc1 [Example 37, 1-Benzyl-2-aminomethylbenzimidazole hydrochloride]
